Patent US20050203191A1, “1-Aminocyclohexane derivatives for the treatment of agitation and other behavioral disorders, especially those associated with alzheimer's disease” (priority 2004, published 2005)

Legend:
[1] = test system: patients with mild to moderate dementia of the Alzheimer's type; assay: MD-10: randomized, double-blind, placebo-controlled evaluation of memantine; assay type: in vivo, human; conditions: MD-10, week 24, ITT LOCF
Method: MD-10: MD-10 was a randomized, double-blind, placebo-controlled evaluation of the safety and efficacy of memantine in patients with mild to moderate dementia of the Alzheimer's type. The primary endpoints for MD-10 were ADAS-cog and CIBIC-plus. Other endpoints for MD-10 included ADCS-ADL, NPI, and RUD (Resource Utilization in Dementia).
(§1) The five memantine trials were evaluated using an analysis of patient for a population having an NPI agitation subscale score of >4 ([…]) and for a population having an NPI score of <4 ([…]). For each NPI population, changes in SIB, ADAS-cog and/or ADL were calculated using the least square (LS) mean difference for memantine and placebo-treated patients. Similarly, for each NPI population, the raw mean difference between memantine and placebo was calculated for the CIBIC-plus results.
(§2) For primary efficacy measurements the comparison between memantine and placebo was performed using two-way analysis of covariance (ANCOVA) with treatment group and center as the two factors, and the baseline scores as covariate. Both the LOCF imputation approach and the OC approach are performed at the end of the trials.
(§3) For secondary efficacy measurements, the comparison between memantine and placebo was performed using two-way analysis of covariance (ANCOVA) with treatment group and center as the two main effects, and the baseline scores as covariate. Descriptive statistics were calculated by Visit. Again, all analyses were performed using both the LOCF imputation approach and the OC approach.
(§4) Results of ANCOVA were summarized using least square (LS) means for each treatment group with corresponding standard error (SE), the between-treatment (2-24 week) difference in the least square means with corresponding 95% confidence interval, and the between-treatment p-value corresponds to the SAS Type III sum of squares.
(§5) In data Tables 5-19, the Overall Memantine versus Placebo columns of studies MD-01, MD-02, MD-10 and MD-12 used an ANCOVA model with baseline total score as covariate, treatment and study center as factors for SIB, ADL or ADAS-cog; CMH test controlling for study center for CIBIC-Plus. For MZ-9605, results are based on arithmetic means and the Wilcoxon-Mann-Whitney test. The Agitation score columns/NPI/antipsychotics columns, except CIBIS-Plus, calculated the p-values and LS mean differences within the subgroups from an ANCOVA model with baseline total score as covariate, subgroup (yes/no), treatment, and treatment by subgroup interactions as factors. For CIBIS-Plus, the p-values and raw mean differences within a subgroup were calculated using the CMH test controlling for study center.
(§6) Patients in the same five trials described above were stratified into two sub-groups in a second analysis, those with an NPI total score in the top quartile (≧75%), or those more severely impaired at baseline, and those with an NPI total score <75%, or less severe impairment at baseline. Similar to as in Example 1, results were evaluated using the change in SIB (cognitive endpoint), and change in ADCS-ADL (functional endpoint), using the LS mean. The change in the CIBIC-plus (global endpoint) was assessed using the raw mean.
(§7) A sub-population of patients from the five trials, MD-01, MD-02, MD-10, MD-12, and MZ-9605, were concurrently taking antipsychotics.

[2] = humans; cited from earlier work
[3] = test system: patients with moderate-to-severe AD; assay: MD-01: 24-week trial of memantine as monotherapy; assay type: in vivo, human; conditions: MD-01, week 24, ITT LOCF
Method: MD-01: MD-01 was a trial evaluating memantine as monotherapy for the treatment of patients with moderate-to-severe AD lasting for 24 weeks. About 350 patients were enrolled. Efficacy was evaluated using the Severe Impairment Battery (SIB), the Assessment of Daily Living (ADL) and the CIBIC-plus Scales.
as §1, §2, §3, §4, §5, §6, §7

[4] = NPI total score ≧=75% (top quartile)
[5] = antipsychotics usage “YES” (N = n)
[6] = antipsychotics usage “YES” (N = y)
[7] = baseline NPI agitation score <4
[8] = baseline NPI agitation score ≧=4
[9] = baseline NPI agitation score ≧=4, listed as MEM

SMILES: CC12CC3CC(C)(C1)CC(N)(C3)C2 [memantine, 1-amino-3,5-dimethyl adamantane]
- ADAS-cog (change) LS Mean Diff., MEM v. PLA ([1]; NPI total score <75%): −1.59
- ADAS-cog (change) mean ([1]; NPI total score <75%): −0.08
- ADCS-ADL (change) LS Mean Diff., MEM v. PLA ([1]; NPI total score <75%): 0.11
- ADCS-ADL (change) mean ([1]; NPI total score <75%): −2.67
- CIBIC-PLUS Raw Mean Diff., MEM v. PLA ([1]; NPI total score <75%): −0.32
- CIBIC-PLUS mean ([1]; NPI total score <75%): 4.16
- ADAS-cog (change) LS Mean Diff., MEM v. PLA [1, 4]: −2.53
- ADAS-cog (change) mean [1, 4]: −1.18
- ADCS-ADL (change) LS Mean Diff., MEM v. PLA [1, 4]: 0.70
- ADCS-ADL (change) mean [1, 4]: −5.04
- CIBIC-PLUS Raw Mean Diff., MEM v. PLA [1, 4]: −0.3
- CIBIC-PLUS mean [1, 4]: 4.33
- ADAS-COG (change) LS Mean Diff., MEM v. PLA (second parameter of Table 19) [1, 5]: 0.31
- ADAS-COG (change) mean (second parameter of Table 19) [1, 5]: −2.69
- ADAS-cog (change) LS Mean Diff., MEM v. PLA [1, 5]: −1.93
- ADAS-cog (change) mean [1, 5]: −0.54
- CIBIC-PLUS Raw Mean Diff., MEM v. PLA [1, 5]: −0.29
- CIBIC-PLUS mean [1, 5]: 4.18
- ADAS-COG (change) LS Mean Diff., MEM v. PLA (second parameter of Table 19) [1, 6]: −0.017
- ADAS-COG (change) mean (second parameter of Table 19) [1, 6]: −7.95
- ADAS-cog (change) LS Mean Diff., MEM v. PLA [1, 6]: −0.74
- ADAS-cog (change) mean [1, 6]: 1.42
- CIBIC-PLUS Raw Mean Diff., MEM v. PLA [1, 6]: −0.51
- CIBIC-PLUS mean [1, 6]: 4.40
- ADAS-cog (change) LS Mean Diff., MEM v. PLA [1, 7]: −1.87
- ADAS-cog (change) mean [1, 7]: −0.49
- ADCS-ADL (change) LS Mean Diff., MEM v. PLA [1, 7]: 0.65
- ADCS-ADL (change) mean [1, 7]: −3
- CIBIC-PLUS Raw Mean Diff., MEM v. PLA [1, 7]: −0.36
- CIBIC-PLUS mean [1, 7]: 4.18
- ADAS-cog (change) LS Mean Diff., MEM v. PLA [1, 8]: −1.39
- ADAS-cog (change) mean [1, 8]: 0.86
- ADCS-ADL (change) LS Mean Diff., MEM v. PLA [1, 8]: −2.66
- ADCS-ADL (change) mean [1, 8]: −5.05
- CIBIC-PLUS Raw Mean Diff., MEM v. PLA [1, 8]: no difference
- CIBIC-PLUS mean [1, 8]: 4.36
- CIBIC-PLUS Raw Mean Diff., MEM v. PLA [1, 9]: 0.0
- ADAS-cog (change) LS Mean Diff., MEM v. PLA ([1]; overall): −1.90
- ADAS-cog (change) LS mean ([1]; overall): −0.80
- ADCS-ADL (change) LS Mean Diff., MEM v. PLA ([1]; overall): 0.10
- ADCS-ADL (change) LS mean ([1]; overall): −2.90
- CIBIC-PLUS LS mean ([1]; overall): 4.20
- CIBIC-PLUS Raw Mean Diff., MEM v. PLA ([1]; overall): −0.30
- therapeutically effective circulating concentration [2]: 1 µM
- ADCS-ADL (change) LS Mean Diff., MEM v. PLA ([3]; NPI total score <75%): 0.87
- ADCS-ADL (change) mean ([3]; NPI total score <75%): −1.1
- CIBIC-PLUS Raw Mean Diff., MEM v. PLA ([3]; NPI total score <75%): −0.2
- CIBIC-PLUS mean ([3]; NPI total score <75%): 4.3
- SIB (change) LS Mean Diff., MEM v. PLA ([3]; NPI total score <75%): 0.3
- SIB (change) mean ([3]; NPI total score <75%): −1.2
- ADCS-ADL (change) LS Mean Diff., MEM v. PLA [3, 4]: −0.05
- ADCS-ADL (change) mean [3, 4]: −2.3
- CIBIC-PLUS Raw Mean Diff., MEM v. PLA [3, 4]: −0.2
- CIBIC-PLUS mean [3, 4]: 4.5
- SIB (change) LS Mean Diff., MEM v. PLA [3, 4]: 3.5
- SIB (change) mean [3, 4]: −2.8
- ADCS-ADL (change) LS Mean Diff., MEM v. PLA [3, 5]: 0.8
- ADCS-ADL (change) mean [3, 5]: −0.8
- CIBIC-PLUS Raw Mean Diff., MEM v. PLA [3, 5]: −0.26
- CIBIC-PLUS mean [3, 5]: 4.26
- SIB (change) LS Mean Diff., MEM v. PLA [3, 5]: 1.7
- SIB (change) mean [3, 5]: −0.5
- ADCS-ADL (change) LS Mean Diff., MEM v. PLA [3, 6]: −0.15
- ADCS-ADL (change) mean [3, 6]: −3.8
- CIBIC-PLUS Raw Mean Diff., MEM v. PLA [3, 6]: −0.1
- CIBIC-PLUS mean [3, 6]: 4.63
- SIB (change) LS Mean Diff., MEM v. PLA [3, 6]: −1.9
- SIB (change) mean [3, 6]: −6.2
- ADCS-ADL (change) LS Mean Diff., MEM v. PLA [3, 7]: 0.36
- ADCS-ADL (change) mean [3, 7]: −1.3
- CIBIC-PLUS Raw Mean Diff., MEM v. PLA [3, 7]: −0.2
- CIBIC-PLUS mean [3, 7]: 4.3
- SIB (change) LS Mean Diff., MEM v. PLA [3, 7]: −0.15
- SIB (change) mean [3, 7]: −1.9
- ADCS-ADL (change) LS Mean Diff., MEM v. PLA [3, 8]: 1.18
- ADCS-ADL (change) mean [3, 8]: −3.2
- CIBIC-PLUS Raw Mean Diff., MEM v. PLA [3, 8]: 0
- CIBIC-PLUS mean [3, 8]: 4.7
- SIB (change) LS Mean Diff., MEM v. PLA [3, 8]: 4.65
- SIB (change) mean [3, 8]: −1.0
- ADCS-ADL (change) mean [3, 9]: −2.2
- CIBIC-PLUS Raw Mean Diff., MEM v. PLA [3, 9]: 0.0
- ADCS-ADL (change) LS Mean Diff., MEM v. PLA ([3]; overall): 0.70
- ADCS-ADL (change) LS mean ([3]; overall): −2.00
- CIBIC-PLUS LS mean ([3]; overall): 4.30
- CIBIC-PLUS Raw Mean Diff., MEM v. PLA ([3]; overall): −0.30
- SIB (change) LS Mean Diff., MEM v. PLA ([3]; overall): 0.60
- SIB (change) LS mean ([3]; overall): −2.00
